Results taken from publication PMC7313537 (PLoS ONE, 2020).

What was measured:
Assay in all cases: Broader kinase panel (PerkinElmer)
Format in all cases: biochemical
Conditions in all cases: 100 nM; read-out: Average Percent Inhibition
[1] = molecular target: T1, ABL (Homo sapiens, UniProt P00519)
T1 construct: purchased In-house HTRF panel (56 kinases) and PerkinElmer (161-kinase panel)
Source text: (§1) […]. […] […].

[2] = molecular target: T2, ABL1(G250E) (Homo sapiens, UniProt P00519, G250E)
T2 construct: purchased In-house HTRF panel (56 kinases) and PerkinElmer (161-kinase panel)
Source text: as §1

[3] = molecular target: T3, ABL1(Y253F) (Homo sapiens, UniProt P00519, Y253F)
T3 construct: purchased In-house HTRF panel (56 kinases) and PerkinElmer (161-kinase panel)
Source text: as §1

[4] = molecular target: AKT1 (Homo sapiens, UniProt P31749)
Source text: as §1

[5] = molecular target: T4, Abl (Q252H) (Homo sapiens, UniProt P00519, Q252H)
T4 construct: purchased In-house HTRF panel (56 kinases) and PerkinElmer (161-kinase panel)
Source text: as §1

[6] = molecular target: T5, CDK1/Cycline B1 (Homo sapiens, UniProt P06493)
T5 construct: purchased In-house HTRF panel (56 kinases) and PerkinElmer (161-kinase panel)
Source text: as §1

[7] = molecular target: T6, CHK1 (Homo sapiens, UniProt O14757)
T6 construct: purchased In-house HTRF panel (56 kinases) and PerkinElmer (161-kinase panel)
Source text: as §1

[8] = molecular target: T7, CHK2 (Homo sapiens, UniProt O96017)
T7 construct: purchased In-house HTRF panel (56 kinases) and PerkinElmer (161-kinase panel)
Source text: as §1

[9] = molecular target: T8, CK1-gamma 1 (Homo sapiens, UniProt Q9HCP0)
T8 construct: purchased In-house HTRF panel (56 kinases) and PerkinElmer (161-kinase panel)
Source text: as §1

[10] = molecular target: T9, CLK2 (Homo sapiens, UniProt P49760)
T9 construct: purchased In-house HTRF panel (56 kinases) and PerkinElmer (161-kinase panel)
Source text: as §1

[11] = molecular target: T10, DYRK1a (Homo sapiens, UniProt Q13627)
T10 construct: purchased In-house HTRF panel (56 kinases) and PerkinElmer (161-kinase panel)
Source text: as §1

[12] = molecular target: T11, Erk1 (Homo sapiens, UniProt P27361)
T11 construct: purchased In-house HTRF panel (56 kinases) and PerkinElmer (161-kinase panel)
Source text: as §1

[13] = molecular target: FLT3 (Homo sapiens, UniProt P36888)
Source text: as §1

[14] = molecular target: T12, FLT4 (Homo sapiens, UniProt P35916)
T12 construct: purchased In-house HTRF panel (56 kinases) and PerkinElmer (161-kinase panel)
Source text: as §1

[15] = molecular target: T13, Fer (Homo sapiens, UniProt P16591)
T13 construct: purchased In-house HTRF panel (56 kinases) and PerkinElmer (161-kinase panel)
Source text: as §1

[16] = molecular target: T14, GSK3-alpha (Homo sapiens, UniProt P49840)
T14 construct: purchased In-house HTRF panel (56 kinases) and PerkinElmer (161-kinase panel)
Source text: as §1

[17] = molecular target: T15, HGK (Homo sapiens, UniProt O95819)
T15 construct: purchased In-house HTRF panel (56 kinases) and PerkinElmer (161-kinase panel)
Source text: as §1

[18] = molecular target: T16, Hck (Homo sapiens, UniProt P08631)
T16 construct: purchased In-house HTRF panel (56 kinases) and PerkinElmer (161-kinase panel)
Source text: as §1

[19] = molecular target: T17, IKBKE (IKK epsilon) (Homo sapiens, UniProt Q14164)
T17 construct: purchased In-house HTRF panel (56 kinases) and PerkinElmer (161-kinase panel)
Source text: as §1

[20] = molecular target: T18, IKK-beta (Homo sapiens, UniProt O14920)
T18 construct: purchased In-house HTRF panel (56 kinases) and PerkinElmer (161-kinase panel)
Source text: as §1

[21] = molecular target: T19, INSR (Homo sapiens, UniProt P06213)
T19 construct: purchased In-house HTRF panel (56 kinases) and PerkinElmer (161-kinase panel)
Source text: as §1

[22] = molecular target: T20, IRAK4 (Homo sapiens, UniProt Q9NWZ3)
T20 construct: purchased In-house HTRF panel (56 kinases) and PerkinElmer (161-kinase panel)
Source text: as §1

[23] = molecular target: KDR (Homo sapiens, UniProt P35968)
Source text: as §1

[24] = molecular target: T21, LYN (Homo sapiens, UniProt P07948)
T21 construct: purchased In-house HTRF panel (56 kinases) and PerkinElmer (161-kinase panel)
Source text: as §1

[25] = molecular target: T22, MARK4 (Homo sapiens, UniProt Q96L34)
T22 construct: purchased In-house HTRF panel (56 kinases) and PerkinElmer (161-kinase panel)
Source text: as §1

[26] = molecular target: T23, MET (Homo sapiens, UniProt P08581)
T23 construct: purchased In-house HTRF panel (56 kinases) and PerkinElmer (161-kinase panel)
Source text: as §1

[27] = molecular target: T24, MSK1 (Homo sapiens, UniProt O75582)
T24 construct: purchased In-house HTRF panel (56 kinases) and PerkinElmer (161-kinase panel)
Source text: as §1

[28] = molecular target: T25, MST1 (Homo sapiens, UniProt Q13043)
T25 construct: purchased In-house HTRF panel (56 kinases) and PerkinElmer (161-kinase panel)
Source text: as §1

[29] = molecular target: T26, MST1R (Homo sapiens, UniProt Q04912)
T26 construct: purchased In-house HTRF panel (56 kinases) and PerkinElmer (161-kinase panel)
Source text: as §1

[30] = molecular target: T27, MST2 (Homo sapiens, UniProt Q13188)
T27 construct: purchased In-house HTRF panel (56 kinases) and PerkinElmer (161-kinase panel)
Source text: as §1

[31] = molecular target: T28, PAK3 (Homo sapiens, UniProt O75914)
T28 construct: purchased In-house HTRF panel (56 kinases) and PerkinElmer (161-kinase panel)
Source text: as §1

[32] = molecular target: T29, PASK (Homo sapiens, UniProt Q96RG2)
T29 construct: purchased In-house HTRF panel (56 kinases) and PerkinElmer (161-kinase panel)
Source text: as §1

[33] = molecular target: T30, PDGFR_alpha (Homo sapiens, UniProt P16234)
T30 construct: purchased In-house HTRF panel (56 kinases) and PerkinElmer (161-kinase panel)
Source text: as §1

[34] = molecular target: T31, PKA (Homo sapiens, UniProt P17612)
T31 construct: purchased In-house HTRF panel (56 kinases) and PerkinElmer (161-kinase panel)
Source text: as §1

[35] = molecular target: T32, PKCb2 (Homo sapiens, UniProt P05771)
T32 construct: purchased In-house HTRF panel (56 kinases) and PerkinElmer (161-kinase panel)
Source text: as §1

[36] = molecular target: T33, PKD3 (Homo sapiens, UniProt O94806)
T33 construct: purchased In-house HTRF panel (56 kinases) and PerkinElmer (161-kinase panel)
Source text: as §1

[37] = molecular target: RET (Homo sapiens, UniProt P07949)
Source text: as §1

[38] = molecular target: T34, RSK1 (Homo sapiens, UniProt Q15418)
T34 construct: purchased In-house HTRF panel (56 kinases) and PerkinElmer (161-kinase panel)
Source text: as §1

[39] = molecular target: T35, Ret (V804L) (Homo sapiens, UniProt P07949, V804L)
T35 construct: purchased In-house HTRF panel (56 kinases) and PerkinElmer (161-kinase panel)
Source text: as §1

[40] = molecular target: T36, SGK1 (Homo sapiens, UniProt O00141)
T36 construct: purchased In-house HTRF panel (56 kinases) and PerkinElmer (161-kinase panel)
Source text: as §1

[41] = molecular target: T37, SGK2 (Homo sapiens, UniProt Q9HBY8)
T37 construct: purchased In-house HTRF panel (56 kinases) and PerkinElmer (161-kinase panel)
Source text: as §1

[42] = molecular target: T38, TEC (Homo sapiens, UniProt P42680)
T38 construct: purchased In-house HTRF panel (56 kinases) and PerkinElmer (161-kinase panel)
Source text: as §1

[43] = molecular target: T39, p38-delta (Homo sapiens, UniProt O15264)
T39 construct: purchased In-house HTRF panel (56 kinases) and PerkinElmer (161-kinase panel)
Source text: as §1

T32 sequence (P05771 1-673 isoform P05771-2): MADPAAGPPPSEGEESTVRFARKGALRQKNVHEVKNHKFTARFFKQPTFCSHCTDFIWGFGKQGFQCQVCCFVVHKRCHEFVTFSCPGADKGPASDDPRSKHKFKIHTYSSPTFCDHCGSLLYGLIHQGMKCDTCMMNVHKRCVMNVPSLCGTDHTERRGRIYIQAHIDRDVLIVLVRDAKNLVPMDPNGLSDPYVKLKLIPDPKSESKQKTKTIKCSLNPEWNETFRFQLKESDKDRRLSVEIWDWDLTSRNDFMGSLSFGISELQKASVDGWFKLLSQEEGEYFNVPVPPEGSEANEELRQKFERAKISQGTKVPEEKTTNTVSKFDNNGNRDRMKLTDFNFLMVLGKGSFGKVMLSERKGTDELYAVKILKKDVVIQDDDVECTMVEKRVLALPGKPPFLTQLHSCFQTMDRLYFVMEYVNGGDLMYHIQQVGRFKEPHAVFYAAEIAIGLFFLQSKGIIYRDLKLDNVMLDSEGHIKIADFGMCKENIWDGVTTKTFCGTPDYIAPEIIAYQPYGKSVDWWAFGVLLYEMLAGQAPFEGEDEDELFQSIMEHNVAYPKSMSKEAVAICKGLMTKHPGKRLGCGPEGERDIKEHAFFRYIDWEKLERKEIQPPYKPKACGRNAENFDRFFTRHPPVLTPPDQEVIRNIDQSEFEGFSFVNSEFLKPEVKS
T17 sequence (Q14164 whole entry): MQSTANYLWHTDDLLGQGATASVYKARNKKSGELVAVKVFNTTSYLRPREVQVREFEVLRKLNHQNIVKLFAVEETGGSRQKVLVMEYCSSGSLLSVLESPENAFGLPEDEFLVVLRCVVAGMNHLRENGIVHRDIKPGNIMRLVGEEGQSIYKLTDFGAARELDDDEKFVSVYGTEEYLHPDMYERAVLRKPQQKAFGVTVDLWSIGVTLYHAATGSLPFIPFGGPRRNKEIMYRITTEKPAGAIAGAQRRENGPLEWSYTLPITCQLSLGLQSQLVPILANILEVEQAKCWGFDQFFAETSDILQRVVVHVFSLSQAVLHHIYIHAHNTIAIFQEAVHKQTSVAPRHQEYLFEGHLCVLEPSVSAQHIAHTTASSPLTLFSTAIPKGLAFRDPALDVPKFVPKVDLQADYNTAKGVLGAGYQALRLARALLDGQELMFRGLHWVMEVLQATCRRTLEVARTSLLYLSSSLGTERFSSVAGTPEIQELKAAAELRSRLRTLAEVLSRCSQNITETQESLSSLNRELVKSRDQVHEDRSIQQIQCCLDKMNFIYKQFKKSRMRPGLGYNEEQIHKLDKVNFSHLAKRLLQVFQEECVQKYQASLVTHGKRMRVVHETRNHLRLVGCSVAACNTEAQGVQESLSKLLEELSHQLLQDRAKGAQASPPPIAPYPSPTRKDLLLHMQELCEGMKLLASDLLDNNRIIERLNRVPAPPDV
T30 sequence (P16234 24-1089): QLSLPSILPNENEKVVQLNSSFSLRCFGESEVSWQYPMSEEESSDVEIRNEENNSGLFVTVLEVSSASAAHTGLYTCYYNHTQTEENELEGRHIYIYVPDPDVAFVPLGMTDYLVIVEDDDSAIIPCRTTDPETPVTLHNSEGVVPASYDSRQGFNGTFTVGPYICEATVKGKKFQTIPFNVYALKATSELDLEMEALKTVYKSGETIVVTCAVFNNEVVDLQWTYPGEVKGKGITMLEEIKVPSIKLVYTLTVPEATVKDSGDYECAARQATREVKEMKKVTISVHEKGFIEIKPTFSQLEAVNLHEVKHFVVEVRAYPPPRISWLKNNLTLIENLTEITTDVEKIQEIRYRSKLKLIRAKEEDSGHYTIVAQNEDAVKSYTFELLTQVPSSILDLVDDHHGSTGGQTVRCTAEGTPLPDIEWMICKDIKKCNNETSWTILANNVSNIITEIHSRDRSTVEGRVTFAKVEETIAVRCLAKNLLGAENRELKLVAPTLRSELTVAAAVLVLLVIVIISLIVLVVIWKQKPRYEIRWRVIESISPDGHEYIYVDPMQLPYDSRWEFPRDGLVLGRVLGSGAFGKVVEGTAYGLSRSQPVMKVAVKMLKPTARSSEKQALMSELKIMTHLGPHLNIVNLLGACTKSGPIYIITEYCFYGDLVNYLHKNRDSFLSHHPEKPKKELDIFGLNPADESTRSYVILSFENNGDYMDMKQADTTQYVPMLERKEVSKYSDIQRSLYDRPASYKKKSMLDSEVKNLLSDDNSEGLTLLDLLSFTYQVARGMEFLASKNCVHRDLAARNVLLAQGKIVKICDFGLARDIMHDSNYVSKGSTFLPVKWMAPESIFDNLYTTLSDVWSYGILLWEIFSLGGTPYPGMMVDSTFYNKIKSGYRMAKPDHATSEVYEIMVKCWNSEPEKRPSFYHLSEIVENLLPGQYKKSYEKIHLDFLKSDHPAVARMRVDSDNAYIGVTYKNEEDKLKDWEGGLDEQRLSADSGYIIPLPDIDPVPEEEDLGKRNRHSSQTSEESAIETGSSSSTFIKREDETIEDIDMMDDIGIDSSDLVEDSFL
T21 sequence (P07948 whole entry): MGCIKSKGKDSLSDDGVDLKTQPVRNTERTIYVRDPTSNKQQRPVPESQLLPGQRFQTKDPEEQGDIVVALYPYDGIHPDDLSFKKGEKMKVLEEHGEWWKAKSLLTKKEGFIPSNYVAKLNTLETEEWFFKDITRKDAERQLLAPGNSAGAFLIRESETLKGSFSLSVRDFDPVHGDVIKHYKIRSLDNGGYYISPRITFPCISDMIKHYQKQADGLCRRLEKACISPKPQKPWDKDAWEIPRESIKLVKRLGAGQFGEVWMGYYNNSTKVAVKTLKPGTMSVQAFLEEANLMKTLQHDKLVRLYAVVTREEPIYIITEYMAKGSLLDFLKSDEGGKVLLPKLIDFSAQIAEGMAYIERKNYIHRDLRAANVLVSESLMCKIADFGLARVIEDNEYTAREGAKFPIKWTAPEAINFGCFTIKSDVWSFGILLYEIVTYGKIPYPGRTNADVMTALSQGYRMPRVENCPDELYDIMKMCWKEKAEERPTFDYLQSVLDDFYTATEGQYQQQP
Sequence of RET (P07949 29-1114, species assumed): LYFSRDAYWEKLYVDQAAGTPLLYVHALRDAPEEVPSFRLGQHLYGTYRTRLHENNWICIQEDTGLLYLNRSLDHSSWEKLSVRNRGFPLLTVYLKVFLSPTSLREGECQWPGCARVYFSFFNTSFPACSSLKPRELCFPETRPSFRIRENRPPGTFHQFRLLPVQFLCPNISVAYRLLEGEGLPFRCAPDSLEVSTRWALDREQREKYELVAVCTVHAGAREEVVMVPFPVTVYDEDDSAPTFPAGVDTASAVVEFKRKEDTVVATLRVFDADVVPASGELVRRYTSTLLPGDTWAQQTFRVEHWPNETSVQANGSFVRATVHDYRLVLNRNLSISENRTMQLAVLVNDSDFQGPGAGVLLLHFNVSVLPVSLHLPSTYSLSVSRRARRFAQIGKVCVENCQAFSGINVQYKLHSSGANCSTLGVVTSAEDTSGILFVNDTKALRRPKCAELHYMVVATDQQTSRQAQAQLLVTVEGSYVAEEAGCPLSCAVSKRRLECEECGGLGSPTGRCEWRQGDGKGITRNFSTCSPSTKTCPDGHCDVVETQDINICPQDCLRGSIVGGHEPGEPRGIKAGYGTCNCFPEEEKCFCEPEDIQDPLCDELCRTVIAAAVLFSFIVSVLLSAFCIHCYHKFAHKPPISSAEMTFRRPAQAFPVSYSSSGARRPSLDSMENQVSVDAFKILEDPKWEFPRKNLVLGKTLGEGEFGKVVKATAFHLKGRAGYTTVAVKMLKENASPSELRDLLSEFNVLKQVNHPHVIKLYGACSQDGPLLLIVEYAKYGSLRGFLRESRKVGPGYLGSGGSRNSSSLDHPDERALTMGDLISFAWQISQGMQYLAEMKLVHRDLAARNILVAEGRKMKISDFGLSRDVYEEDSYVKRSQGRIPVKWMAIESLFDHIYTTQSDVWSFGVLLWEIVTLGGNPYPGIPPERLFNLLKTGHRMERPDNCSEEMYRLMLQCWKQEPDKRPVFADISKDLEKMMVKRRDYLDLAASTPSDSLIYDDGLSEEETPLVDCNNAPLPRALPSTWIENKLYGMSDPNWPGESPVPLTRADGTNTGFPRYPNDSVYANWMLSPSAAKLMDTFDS
T28 sequence (O75914 whole entry): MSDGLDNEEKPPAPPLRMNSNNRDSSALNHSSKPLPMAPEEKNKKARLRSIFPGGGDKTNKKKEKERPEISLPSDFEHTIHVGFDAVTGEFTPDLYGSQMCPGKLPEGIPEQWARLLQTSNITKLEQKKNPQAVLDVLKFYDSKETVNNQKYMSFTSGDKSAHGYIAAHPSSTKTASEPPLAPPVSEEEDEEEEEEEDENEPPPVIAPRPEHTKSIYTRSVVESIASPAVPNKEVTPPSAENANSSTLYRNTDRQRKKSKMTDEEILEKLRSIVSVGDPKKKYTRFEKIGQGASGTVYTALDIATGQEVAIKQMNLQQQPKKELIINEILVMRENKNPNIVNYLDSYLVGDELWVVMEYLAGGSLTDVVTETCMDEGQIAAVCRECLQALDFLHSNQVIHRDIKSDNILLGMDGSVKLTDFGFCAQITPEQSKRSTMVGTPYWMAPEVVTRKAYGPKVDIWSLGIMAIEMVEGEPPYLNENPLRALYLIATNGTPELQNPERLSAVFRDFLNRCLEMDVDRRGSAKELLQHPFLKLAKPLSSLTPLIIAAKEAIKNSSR
T20 sequence (Q9NWZ3 whole entry): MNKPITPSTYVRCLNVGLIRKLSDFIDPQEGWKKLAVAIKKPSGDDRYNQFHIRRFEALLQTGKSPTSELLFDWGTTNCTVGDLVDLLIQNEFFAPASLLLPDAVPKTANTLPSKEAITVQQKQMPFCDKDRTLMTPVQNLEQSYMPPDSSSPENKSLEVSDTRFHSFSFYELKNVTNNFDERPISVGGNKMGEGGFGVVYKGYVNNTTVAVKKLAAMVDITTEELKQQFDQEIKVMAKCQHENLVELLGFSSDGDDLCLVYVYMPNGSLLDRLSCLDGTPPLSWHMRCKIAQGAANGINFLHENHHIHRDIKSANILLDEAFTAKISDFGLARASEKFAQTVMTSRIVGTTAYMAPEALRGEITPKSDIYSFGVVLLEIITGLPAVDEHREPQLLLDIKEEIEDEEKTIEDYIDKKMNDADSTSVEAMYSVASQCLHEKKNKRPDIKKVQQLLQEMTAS

CCN1C(=O)N(c2c(F)c(OC)cc(OC)c2F)Cc2cnc3[nH]c(CN4CCOCC4)cc3c21 [INCB054828, pemigatinib]
inhibition at 0.1 µM [1]: -4%
inhibition at 0.1 µM [2]: 1%
inhibition at 0.1 µM [3]: 2%
inhibition at 0.1 µM [4]: 2%
inhibition at 0.1 µM [5]: 1%
inhibition at 0.1 µM [6]: 5%
inhibition at 0.1 µM [7]: 0%
inhibition at 0.1 µM [8]: 4%
inhibition at 0.1 µM [9]: -3%
inhibition at 0.1 µM [10]: -3%
inhibition at 0.1 µM [11]: -2%
inhibition at 0.1 µM [12]: 1%
inhibition at 0.1 µM [13]: 0%
inhibition at 0.1 µM [14]: 38%
inhibition at 0.1 µM [15]: 17%
inhibition at 0.1 µM [16]: 2%
inhibition at 0.1 µM [17]: -6%
inhibition at 0.1 µM [18]: -3%
inhibition at 0.1 µM [19]: -2%
inhibition at 0.1 µM [20]: 4%
inhibition at 0.1 µM [21]: 1%
inhibition at 0.1 µM [22]: 0%
inhibition at 0.1 µM [23]: 45%
inhibition at 0.1 µM [24]: 14%
inhibition at 0.1 µM [25]: -4%
inhibition at 0.1 µM [26]: -2%
inhibition at 0.1 µM [27]: 1%
inhibition at 0.1 µM [28]: -1%
inhibition at 0.1 µM [29]: 1%
inhibition at 0.1 µM [30]: 3%
inhibition at 0.1 µM [31]: -2%
inhibition at 0.1 µM [32]: -7%
inhibition at 0.1 µM [33]: -4%
inhibition at 0.1 µM [34]: 1%
inhibition at 0.1 µM [35]: 0%
inhibition at 0.1 µM [36]: 0%
inhibition at 0.1 µM [37]: 7%
inhibition at 0.1 µM [38]: -2%
inhibition at 0.1 µM [39]: 0%
inhibition at 0.1 µM [40]: 1%
inhibition at 0.1 µM [41]: -2%
inhibition at 0.1 µM [42]: 19%
inhibition at 0.1 µM [43]: 2%
